The results in this text go back to patent US20220112178A1, “Small Molecule Modulators of RAS GTPase” (Tosk, Inc., priority 2020, published 2022).

Molecules are shown by their SMILES. A value given as a limit tells only on which side of the number the result lay.

The first assay relates to SW620 cells. The assay is described as follows: Cell proliferation / cytotoxicity assay (CellTiter-Glo) in SW620 cells. It counts as cell-based. The note with it: Homo sapiens, SW-620; SW620 cells (ATCC CCL-227), 72 hours, CellTiter-Glo 2.0 luminescence. The protocol: Compounds are assayed for inhibition of cell proliferation and killing cancer cells. Cytotoxicity assays are conducted according to the following general procedure. SW620 cells (ATCC CCL-227) are maintained in DMEM Low Glucose (Corning 10-014-CV) media supplemented with 10% fetal bovine serum and 1% PenStrep and grown at 37° C. in 5% CO2. Cells are plated into 96 well flat bottom plates (2 million/plate, ˜20,000/well, 200 μL media/well). The cells are allowed to settle and adhere to the plate bottom overnight. Compounds are diluted in media from a 10 mM stock solution starting at 50 μM, using 2-fold dilutions, in a column in a 96-well plate. Media is removed from the plate containing cells and replaced with media containing diluted compounds, Plates are incubated 72 hours at 37° C. in 5% CO2. Plates are allowed to come to room temperature and 100 μL CellTiter-Glo 2.0 reagent (Promega, G924C) is added at room temperature. Plates are shaken for 2 minutes, then allowed to stand for 15 minutes. Luminescence is read with FLx800 (BioTek Instruments). Data is plotted with GraphPad Prizm 8.0.
Background: Cellular ATP, detected with luciferase, serves as a proxy for viable cell number.
The molecule `Cc1nc(N[C@@H]2CC[C@H](N)C2)nc2ccc(-c3ccnc4c3OCCO4)cc12` [Compound 10] yielded an IC50 of 5 to 10 µM.
The same measure, in the same setting: the result for `Cc1nc(N[C@@H]2CC[C@H](NC(=O)OC[C@@H]3CCCN3C)C2)nc2ccc(-c3ccnc4c3OCCO4)cc12` [Compound 38] reads under 5 µM; that for `Cc1nc(N[C@@H]2CC[C@H](N3CCNC3=O)C2)nc2ccc(-c3ccnc4c3OCCO4)cc12` [Compound 26], 5 to 10 µM.
For the molecule `Cc1nc(N[C@@H]2CC[C@H](NC(=O)O[C@H]3CCN(C)C3)C2)nc2ccc(-c3ccnc4c3OCCO4)cc12` [Compound 33], the IC50 is under 5 µM.
As to `COc1c(Cl)cccc1-c1ccc2nc(N[C@@H]3CC[C@H](NC(=O)OC(C)(C)C)C3)nc(C)c2c1` [Compound 22], the concentration for half-maximal inhibition (IC50) lay in the range of 5 to 10 µM.
Turning to `Cc1nc(N[C@@H]2CC[C@H](NC(=O)OC(C)(C)C)C2)nc2ccc(-c3cccc4c3OCCO4)cc12` [Compound 1], the half-inhibitory concentration (IC50) lay in the range of 5 to 10 µM.
`Cc1nc(N[C@@H]2CC[C@H](NC(=O)Cn3cccn3)C2)nc2ccc(-c3cccc4c3CCCC4)cc12` [Compound 29] had a 50% inhibitory concentration (IC50) of under 5 µM.
As to `Cc1nc(N[C@@H]2CC[C@H](NC(=O)O[C@@H]3CCN(C)C3)C2)nc2ccc(-c3ccnc4c3OCCO4)cc12` [Compound 39], the half-maximal inhibitory concentration (IC50) is under 5 µM.
In turn, `Cc1nc(N[C@@H]2CC[C@H](NC(=O)C(C)(C)C)C2)nc2ccc(-c3ccnc4c3OCCO4)cc12` [Compound 27] yielded an IC50 of under 5 µM.
The same measure, in the same setting: the result for `Cc1nccc(-c2ccc3nc(N[C@@H]4CC[C@H](NC(=O)c5ccc(Cl)cc5)C4)nc(C)c3c2)c1Cl` [Compound 9] reads under 5 µM; that for `Cc1nc(N[C@@H]2CC[C@H](NC(=O)OC(C)(C)C)C2)nc2ccc(-c3c(Cl)cnc4c3OCCO4)cc12` [Compound 44], under 5 µM.
In turn, `Cc1nc(N[C@@H]2CC[C@H](N3Cc4ccccc4CC3=O)C2)nc2ccc(-c3ccnc4c3OCCO4)cc12` [Compound 7] gave an IC50 of 5 to 10 µM.
On the same count and under the same terms, then `Cc1nc(N[C@@H]2CC[C@H](NC(=O)OC(C)(C)C)C2)[n+]([O-])c2ccc(-c3ccnc4c3OCCO4)cc12` [Compound 46], with under 5 µM; and `Cc1nc(N[C@@H]2CC[C@H](NC(=O)OCc3ncco3)C2)nc2ccc(-c3ccnc4c3OCCO4)cc12` [Compound 35], with under 5 µM; and `Cc1nn(C)c(C(=O)N[C@H]2CC[C@@H](Nc3nc(C)c4cc(-c5ccnc6c5OCCO6)ccc4n3)C2)c1Cl` [Compound 13], with under 5 µM.
As to `Cc1ncccc1C(=O)N[C@H]1CC[C@@H](Nc2nc(C)c3cc(-c4ccnc5c4OCCO5)ccc3n2)C1` [Compound 14], the half-maximal inhibitory concentration (IC50) was under 5 µM.
As to `Cc1nc(N[C@@H]2CC[C@H](NC(=O)c3ccccc3Cl)C2)nc2ccc(-c3ccnc4c3OCCO4)cc12` [Compound 6], the IC50 was under 5 µM.
`Cc1nc(N[C@@H]2CC[C@H](NC(=O)c3ccc(Cl)cc3)C2)nc2ccc(-c3cccc4c3CCCC4)cc12` [Compound 5] returned an IC50 of under 5 µM.
Molecule `COc1nccc(-c2ccc3nc(N[C@@H]4CC[C@H](NC(=O)OC(C)(C)C)C4)nc(C)c3c2)c1Cl` [Compound 21] showed a 50% inhibitory concentration (IC50) of 5 to 10 µM.
On the same count and under the same terms, the result for `Cc1nccc(-c2ccc3nc(N[C@@H]4CC[C@H](NC(=O)OC(C)(C)C)C4)nc(C)c3c2)c1Cl` [Compound 16] reads 5 to 10 µM; that for `Cc1nc(N[C@@H]2CC[C@H](N3Cc4ccccc4CC3=O)C2)nc2ccc(-c3cccc4c3OCCO4)cc12` [Compound 3], 5 to 10 µM.
Molecule `Cc1ccc2ccc(F)c(-c3ccc4nc(N[C@@H]5CC[C@@H](NC(=O)OC(C)(C)C)C5)nc(C)c4c3)c2n1` [Compound 12] showed a half-maximal inhibitory concentration (IC50) of 5 to 10 µM.
`Cc1ccc2ccc(F)c(-c3ccc4nc(N[C@H]5CC[C@@H](NC(=O)OC(C)(C)C)C5)nc(C)c4c3)c2n1` [Compound 28]: the IC50 was 5 to 10 µM.
`Cc1nc(N[C@@H]2CC[C@H](NC(=O)OCc3ccno3)C2)nc2ccc(-c3ccnc4c3OCCO4)cc12` [Compound 40] returned an IC50 of under 5 µM.
Consider `Cc1nc(N[C@@H]2CC[C@@H](NC(=O)OC(C)(C)C)C2)nc2ccc(-c3ccnc4c3OCCO4)cc12` [Compound 11], for which the 50% inhibitory concentration (IC50) was under 5 µM.
Same read-out and setting: then `Cc1nc(N[C@@H]2CC[C@H](NC(=O)c3ccc(Cl)cc3)C2)nc2ccc(-c3cccc4c3OCCO4)cc12` [Compound 2], with 5 to 10 µM; and `Cc1nc(N[C@@H]2CC[C@H](NC(=O)OC[C@H]3CCCN3C)C2)nc2ccc(-c3ccnc4c3OCCO4)cc12` [Compound 37], with under 5 µM.
Take `Cc1nc(N[C@@H]2CC[C@H](NC(=O)OC(C)(C)C)C2)nc2ccc(-c3ccnc4c3OCCO4)cc12` [Compound 4]: the IC50 is under 5 µM.
In the case of `Cc1nc(N[C@@H]2CC[C@H](NC(=O)c3ccc(Cl)cc3)C2)nc2ccc(-c3ccnc4c3OCCO4)cc12` [Compound 8], the half-inhibitory concentration (IC50) is under 5 µM.
For the molecule `Cc1nc(N[C@@H]2CC[C@H](NC(=O)OCc3nccn3C)C2)nc2ccc(-c3ccnc4c3OCCO4)cc12` [Compound 34], the IC50 was under 5 µM.
`Cc1nc(N[C@@H]2CC[C@H](NC(=O)OC(C)(C)C)C2)nc2ccc(-c3cc[n+]([O-])c4c3OCCO4)cc12` [Compound 45] came in with an IC50 of under 5 µM.
The molecule `Cc1nc(N[C@@H]2CC[C@H](NC(=O)c3nnn(C(C)(C)C)n3)C2)nc2ccc(-c3ccnc4c3OCCO4)c(F)c12` [Compound 48] came in with an IC50 of under 5 µM.
`Cc1ccc2ccc(F)c(-c3ccc4nc(N[C@@H]5CC[C@H](NC(=O)OC(C)(C)C)C5)nc(C)c4c3)c2n1` [Compound 15] displayed an IC50 of 5 to 10 µM.
For the molecule `C=CC(=O)N[C@H]1CC[C@@H](Nc2nc(C)c3cc(-c4ccnc5c4OCCO5)ccc3n2)C1` [Compound 42], the IC50 is under 5 µM.
Molecule `Cc1nc(N[C@@H]2CC[C@H](NC(=O)c3nnn(C(C)(C)C)n3)C2)nc2ccc(-c3ccnc4c3OCCO4)cc12` [Compound 47] had an IC50 of under 5 µM.
The same measure, in the same setting: then `Cc1nc(N[C@H]2CC[C@@H](NC(=O)OC(C)(C)C)C2)nc2ccc(-c3ccnc4c3OCCO4)cc12` [Compound 18], with under 5 µM.
On to `COc1ncccc1-c1ccc2nc(N[C@@H]3CC[C@H](NC(=O)OC(C)(C)C)C3)nc(C)c2c1` [Compound 31], for which the IC50 was in the range of 5 to 10 µM.
For the molecule `Cc1nc(N[C@@H]2CC[C@H](NC(=O)OCc3ccon3)C2)nc2ccc(-c3ccnc4c3OCCO4)cc12` [Compound 36], the IC50 was under 5 µM.
In turn, `Cc1nc(N[C@@H]2CC[C@H](NS(=O)(=O)c3ccc(C#N)cc3)C2)nc2ccc(-c3ccnc4c3OCCO4)cc12` [Compound 32] showed an IC50 of under 5 µM.
On to `Cc1nc(N[C@@H]2CC[C@H](NC(=O)OC(C)(C)C)C2)nc2ccc(-c3ccnc4c3OCCO4)c(F)c12` [Compound 43], for which the IC50 is under 5 µM.
For `Cc1cc(COC(=O)N[C@H]2CC[C@@H](Nc3nc(C)c4cc(-c5ccnc6c5OCCO6)ccc4n3)C2)on1` [Compound 41], the IC50 is under 5 µM.

The same assay, now with this note: Homo sapiens, SW-620; SW620 cells (ATCC CCL-227), 72 hours, CellTiter-Glo 2.0 luminescence; Table 2.
In the case of `Cc1nc(N[C@H]2CCN(Cc3ccc(Cl)cc3)C2)nc2ccc(-c3cccc4c3CCCC4)cc12` [Compound 91], the IC50 is under 5 µM.
`Cc1nc(N[C@@H]2CCN(Cc3ccc(Cl)cc3)C2)nc2ccc(-c3cccc4c3CCCC4)cc12` [Compound 92] yielded a half-inhibitory concentration (IC50) of 5 to 10 µM.

Still in this assay, the particulars now being: SW620 cells (ATCC CCL-227), 72 hours, CellTiter-Glo 2.0 luminescence.
For `Cc1ccc2ccc(F)c(-c3ccc4nc(N[C@@H]5CC[C@H](NC(=O)OC(C)(C)C)C5)nc(C)c4c3)c2n1` [Compound 30], the half-maximal inhibitory concentration (IC50) lay in the range of 5 to 10 µM.
Same read-out and setting: then `Cc1nc(N[C@@H]2CC[C@H](NC(=O)OC(C)(C)C)C2)nc2ccc(-c3ccnc4c3OCCO4)cc12` [Compound 17], with under 5 µM.
For `Cc1nc(N[C@@H]2CC[C@H](NC(=O)OC(C)(C)C)C2)nc2ccc(-c3ccnc4c3OCCO4)cc12` [Compound 19], the IC50 is under 5 µM.

Usually IC50 stands for the concentration needed to halve the response being measured. A high value points to weaker potency in that assay.
